Measurements: patent publication US20220112187A1, “PYRAZOLOPYRIDINE AMINE COMPOUNDS FOR THE TREATMENT OF AUTOIMMUNE DISEASE” (Hoffmann-La Roche Inc., priority 2018, published 2022)

molecular target: T1, human TLR9 (Homo sapiens, UniProt Q9NR96); assay: HEK293-Blue-hTLR-9 cells assay (SEAP reporter, ODN2006 stimulation); type: cell-based; details: HEK293-Blue-hTLR9 cells, ODN2006 ligand, 20 hrs incubation
T1 sequence (Q9NR96 26-1032): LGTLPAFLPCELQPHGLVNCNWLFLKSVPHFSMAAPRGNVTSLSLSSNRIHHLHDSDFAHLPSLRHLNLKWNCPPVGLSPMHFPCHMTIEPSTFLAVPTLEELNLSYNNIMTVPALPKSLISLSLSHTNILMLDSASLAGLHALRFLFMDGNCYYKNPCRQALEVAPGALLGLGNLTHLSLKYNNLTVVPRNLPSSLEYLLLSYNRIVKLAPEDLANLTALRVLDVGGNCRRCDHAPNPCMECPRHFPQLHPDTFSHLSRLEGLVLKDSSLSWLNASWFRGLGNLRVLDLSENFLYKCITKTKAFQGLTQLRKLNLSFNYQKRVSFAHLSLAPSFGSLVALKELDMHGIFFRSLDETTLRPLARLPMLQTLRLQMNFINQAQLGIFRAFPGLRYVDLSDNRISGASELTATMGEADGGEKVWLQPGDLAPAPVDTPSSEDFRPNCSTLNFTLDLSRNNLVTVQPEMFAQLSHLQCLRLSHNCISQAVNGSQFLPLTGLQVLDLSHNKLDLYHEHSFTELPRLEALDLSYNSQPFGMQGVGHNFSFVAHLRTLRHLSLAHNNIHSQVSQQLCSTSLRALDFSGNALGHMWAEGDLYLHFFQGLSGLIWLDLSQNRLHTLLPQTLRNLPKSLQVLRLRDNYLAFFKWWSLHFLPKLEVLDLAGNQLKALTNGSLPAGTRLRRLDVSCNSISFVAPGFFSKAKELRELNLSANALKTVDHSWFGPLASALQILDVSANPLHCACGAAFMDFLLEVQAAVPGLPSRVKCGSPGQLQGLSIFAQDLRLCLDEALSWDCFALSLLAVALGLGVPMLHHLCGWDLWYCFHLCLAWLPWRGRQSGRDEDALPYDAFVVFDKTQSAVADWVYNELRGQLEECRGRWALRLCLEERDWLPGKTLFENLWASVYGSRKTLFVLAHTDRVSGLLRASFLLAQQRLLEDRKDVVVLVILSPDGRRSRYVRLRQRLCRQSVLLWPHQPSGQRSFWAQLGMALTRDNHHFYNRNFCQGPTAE
How it was run: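 HEK293-Blue cells stimulated with ODN2006 (10 μL of 20 uM added) plus serially diluted compound, 1% DMSO final, for 20 hrs at 37° C. SEAP in supernatant measured with QUANTI-Blue after 2 hrs at 37° C, absorbance at 620-655 nm; antagonism seen as reduced reporter signal.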

How did the IC50 turn out when `C[C@@H]1CN(c2ccc(C#N)n3nccc23)C[C@H](CN2CC[C@H](N)[C@H](C)C2)O1` [Example 74, 4-[(2S,6R)-2-[[(3R,4S)-4-amino-3-methyl-1-piperidyl]methyl]-6-methyl-morpholin-4-yl]pyrazolo[1,5-a]pyridine-7-carbonitrile] was run?
The IC50 was 220 nM.

With `C[C@@H]1CN(c2ccc(C#N)n3nccc23)C[C@H](CN2CCC3(CN(C)CCO3)C2)O1` (stereo partly drawn) [Example 76, 4-[(2R,6S)-2-methyl-6-[(9-methyl-6-oxa-2,9-diazaspiro[4.5]decan-2-yl)methyl]morpholin-4-yl]pyrazolo[1,5-a]pyridine-7-carbonitrile] as the compound, how does the IC50 read?
The IC50 was 3500 nM.

Which IC50 does the source give for `C[C@@H]1CN(c2ccc(C#N)n3nccc23)C[C@H](CN2CCN(C3CCNCC3)CC2Cc2ccccc2)O1` (stereo partly drawn) [Example 77, 4-[(2S,6R)-2-[[2-benzyl-4-(4-piperidyl)piperazin-1-yl]methyl]-6-methyl-morpholin-4-yl]pyrazolo[1,5-a]pyridine-7-carbonitrile] here?
Its IC50 is 150 nM.
